Assays:
[1] = system: HeLa cells; test: MTT cell viability assay; type: cell-based, human; conditions: 24 h treatment, mean of 4 independent experiments in quadruplicate
Experimental: HeLa cells were treated with 1 μM to 10 μM concentrations of compounds 20A (▾), 1a (grey ▴), 1b (●) and 1c (▪) for 24h. Cell viability was assessed by the MMT assay. Plotted are mean±SD of one representative experiment each performed in quadruplicate. IC50 is scored for each compound from 4 independent experiments performed in quadruplicate. Ordinate: Percentage of HeLa cell viability. Abscissa: Concentrations of compounds 20A, 1a, 1b and 1c.
MTT assay was used to monitor cell viability in HeLa cells subjected to different treatments. Briefly, cells were seeded in a 96-well plate (4×10^3 cells/well). After 24 h of treatment of cells with drug, MTT was added to each well to a final concentration of 0.5 mg/ml during 3 h at 37° C. The supernatant of cells was then removed, and 100 μl of DMSO was added per well. The absorbance in each well was measured at 570 nm and 630 nm using a Flexstation 3 microplate reader (Molecular Devices). 4 independent experiences were conducered, each performed in quadruplicate. To determine the IC50 of compounds 20A, 1a, 1b and 1c, a non-linear regression curve was fit using GraphPad Prism software.

[2] = system: U2OS expressing Galectin3-mCherry cells; test: Lysosomal membrane permeabilization (LMP), quantification of Galectin 3 puncta; type: cell-based, human; conditions: 24 h, 2 μM of 1a, 1 μM of 1b, 1 μM of 1c; for percentage of cells with Gal3 puncta: compound alone, without chloroquine; for percentage of Gal3 puncta positive cells: with 25 μM chloroquine
Experimental: The data are presented as the mean percentage of 15 values from 5 randomly chosen area in each of the three independent experiments. Ordinate: Percentage of cells with Galectin3 puncta.
Lysosomal membrane damage was assessed thanks to U2OS expressing Galectin3-mCherry cells. […] Cells were then washed with PBS, fixed with 4% (v/v) paraformaldehyde for 10 min at room temperature and then nucleic were counterstained for 15 min with Hoechst 33258. Image acquisition was made with a Leica DMI8 epifluorescence microscope, with a ×20 objective (NA 0.40) equipped with a digital CMOS camera (Hamamatsu photonics) and filter bloc for detection of phase contrast and blue (exc: 325-375 nm/em: 435-485 nm) and red (exc: 541-551 nm/em: 565-605 nm) fluorescence. Each image was collected with identical exposure times and scaled equally. Five images were acquired for each condition and then analyzed thanks to ImageJ software (Schneider et al., 2012, 9(7): 671-675) in order to count manually the number of cells, and automatically the number of Galectin3 punctae within each cell by using the “Find Maxima” tool.

[3] = system: F21T oligonucleotide (human telomeric intramolecular quadruplex); test: FRET melting analysis, G-quadruplex stabilization; type: binding; conditions: compounds at 1-10 μM, 0.2 μM F21T, 10 mM KCl, 90 mM LiCl, pH 7.2
Experimental: Ordinate: melting temperature (Tm) in Celsius scale (° C.). Abscissa (from left to right): (i) Compounds 1a at 10 μM, 5 μM, 2.5 μM, 1 μM; (ii) Compounds 1b at 10 μM, 5 μM, 2.5 μM, 1 μM; (iii) Compounds 1c at 10 μM, 5 μM, 2.5 μM, 1 μM.
FRET melting experiments were conducted using the F21T oligonucleotide.

| Compound | IC50 [1] [µM] | percentage of cells with Gal3 puncta [2] [%] | percentage of Gal3 puncta positive cells [2] [%] | stabilization of the F21T quadruplex (melting temperature Tm) [3] |
| --- | --- | --- | --- | --- |
| CSc1ccc(-c2cc(-c3ccc(-n4cc(CCN5CCN(C)CC5)nn4)cc3)nc(-c3ccc(-n4cc(CCN5CCN(C)CC5)nn4)cc3)c2)cc1 [Compound 1c] | 3.62 | 25 | 45 | stabilize an intramolecular quadruplex |
| CSc1ccc(-c2cc(-c3ccc(-n4cc(CCCN5CCCC5)nn4)cc3)nc(-c3ccc(-n4cc(CCCN5CCCC5)nn4)cc3)c2)cc1 [Compound 1a] | 4.34 | 26 | 57 | stabilize an intramolecular quadruplex |
| CSc1ccc(-c2cc(-c3ccc(-n4cc(CCCN5CCN(C)CC5)nn4)cc3)nc(-c3ccc(-n4cc(CCCN5CCN(C)CC5)nn4)cc3)c2)cc1 [Compound 1b] | 3.15 | 31 | 56 | stabilize an intramolecular quadruplex |
